# Measured values published in EP0059645A1, “Method and kit for identification of beta-lactamases” (NATIONAL RESEARCH DEVELOPMENT CORPORATION, priority 1981, dated 1982).
# Marks after values point to notes of the source that are not given here.
# Assays:
# Test in all cases: Competitive assay with nitrocefin (RSAI)
# OXA-2 = OXA-2 (Escherichia coli, UniProt P0A1V9); type: biochemical, E. coli R46; design: the beta-lactamase has to be extracted from the cells for the purpose of the present invention; made in house; host or cells: E. coli carrying R46 according to the earlier reading (crude cell extract)
# [1] = molecular target: Chromosomal, hyper-induced beta-lactamase enzyme (Escherichia coli, UniProt P00811); type: biochemical, E. coli SNU35; design: Normally, therefore, the beta-lactamase has to be extracted from the cells for the purpose of the present invention; endogenous in cells; host or cells: E. coli SNU 35 (artificially produced strain)
# TEM-2 = TEM-2 (Escherichia coli, UniProt P62593, Q37K); type: biochemical, E. coli 1725E
# Source text: (§1) It is convenient to express the results in terms of a Relative Substrate Affinity Index (RSAI) value.
# (§2) RSAI = Concentration of competing substrate which gives 50% inhibition of ring-opening hydrolysis of the chromogenic substrate
# (§3) Concentration of chromogenic substrate in the assay A high RSAI value therefore indicates a low affinity of the beta-lactamase for that competing substrate, and therefore predicts resistance of a beta-lactam competing substrate to hydrolysis by the beta-lactamase. Low RSAI values, in contrast, predict sensitivity to hydrolysis by a beta-lactamase.
# (§4) Beta-lactam antibiotics which bind to the TEM-2 enzyme compete with nitrocefin in the assay. […] . This concentration of ampicillin is a direct estimate of the relative affinity of the TEM-2 enzyme for ampicillin. […] . The RSAI value was therefore 1.3.
# PSE-4 = PSE-4 (Pseudomonas aeruginosa, UniProt P16897); type: biochemical, Ps.aerug. 1559E; design: Normally, therefore, the beta-lactamase has to be extracted from the cells for the purpose of the present invention; endogenous in cells
# OXA-3 = OXA-3 (Pseudomonas aeruginosa, UniProt Q51429); type: biochemical, E. coli R57B; design: Normally, therefore, the beta-lactamase has to be extracted from the cells for the purpose of the present invention; endogenous in cells
# K1073 = type: biochemical, Klebsiella 1073
# Source text: as §1, §2, §3, §4
# K10317 = type: biochemical, K.aerog. 10317
# Source text: as §1, §2, §3, §4
# HMS-1 = type: biochemical, E. coli 1946
# PSE-3 = type: biochemical, Ps.aerug. 1920E
# K17 = type: biochemical, Klebsiella 17
# Source text: as §1, §2, §3, §4
# [2] = molecular target: T1, Chromosomal, induced beta-lactamase enzyme (Pseudomonas aeruginosa, UniProt P24735); type: biochemical, Ps.aerug. 1937E + ampicillin
# T1 construct: Normally, therefore, the beta-lactamase has to be extracted from the cells for the purpose of the present invention; endogenous in cells; host or cells: Pseudomonas aeruginosa 1937E grown with ampicillin
# SHV-1 = SHV-1 (Escherichia coli, UniProt P0AD63); type: biochemical, E. coli 2008E; design: the beta-lactamase has to be extracted from the cells for the purpose of the present invention; made in house; host or cells: E. coli 2008E (crude cell extract)
# PSE-2 = PSE-2 (Pseudomonas aeruginosa, UniProt P14489); type: biochemical, Ps.aerug. 1973E; design: Normally, therefore, the beta-lactamase has to be extracted from the cells for the purpose of the present invention; endogenous in cells
# [3] = molecular target: T2, Chromosomal, constitutive beta-lactamase enzyme (Enterobacter cloacae, UniProt P05364); type: biochemical, E. cloacae
# T2 construct: Normally, therefore, the beta-lactamase has to be extracted from the cells for the purpose of the present invention; endogenous in cells
# PSE-1 = PSE-1 (Pseudomonas aeruginosa, UniProt Q03170); type: biochemical, Ps.aerug. 1937E; design: Normally, therefore, the beta-lactamase has to be extracted from the cells for the purpose of the present invention; endogenous in cells
# TEM-1 = TEM-1 (Escherichia coli, UniProt P62593); type: biochemical, E. coli 2136E; design: the beta-lactamase has to be extracted from the cells for the purpose of the present invention; made in house; host or cells: E. coli 2136E (plasmid-bearing strain; crude cell extract)
# OXA-1 = OXA-1 (Escherichia coli, UniProt P13661); type: biochemical, E. coli 1527E; design: the beta-lactamase has to be extracted from the cells for the purpose of the present invention; made in house; host or cells: E. coli 1527E according to the earlier reading (crude cell extract)
compound,measurement,setting,value
"C[C@@H](O)[C@H]1C(=O)N2C(C(=O)O)=C(SCCN=CN)C[C@H]12 [MK 0787 (N-Formimidoyl-thienamycin), N-Formimidoyl-thienamycin]",RSAI,OXA-2,0.005*
same,RSAI,[1],2
same,RSAI,TEM-2,0.1
same,RSAI,PSE-4,15
same,RSAI,OXA-3,0.0016*
same,RSAI,K1073,1.9
same,RSAI,K10317,0.24
same,RSAI,HMS-1,1.2
same,RSAI,PSE-3,0.5
same,RSAI,K17,2.1
same,RSAI,[2],0.015
same,RSAI,SHV-1,1.2
same,RSAI,PSE-2,0.08
same,RSAI,[3],0.03
same,RSAI,PSE-1,19.4
same,RSAI,TEM-1,0.1
same,RSAI,OXA-1,0.6*
"CC1(C)S[C@@H]2[C@H](NC(=O)[C@H](C(=O)O)c3ccsc3)C(=O)N2[C@H]1C(=O)O [Ticar-cillin, ticarcillin]",RSAI,OXA-2,26
same,RSAI,[1],0.001
same,RSAI,TEM-2,0.49
same,RSAI,PSE-4,0.65
same,RSAI,OXA-3,12
same,RSAI,K1073,0.485
same,RSAI,K10317,0.48
same,RSAI,HMS-1,0.175
same,RSAI,PSE-3,2
same,RSAI,K17,0.25
same,RSAI,[2],0.0065
same,RSAI,SHV-1,0.23
same,RSAI,PSE-2,2.4
same,RSAI,[3],0.0008*
same,RSAI,PSE-1,0.63
same,RSAI,TEM-1,0.035
same,RSAI,OXA-1,0.65
"Cc1nnc(SCC2=C(C(=O)O)N3C(=O)[C@@H](NC(=O)Cn4cnnn4)[C@H]3SC2)s1 [Cephalo-zolin, Cephalozolin]",RSAI,OXA-2,3.4
same,RSAI,[1],46
same,RSAI,TEM-2,48
same,RSAI,PSE-4,2.6
same,RSAI,OXA-3,3.4
same,RSAI,K1073,16
same,RSAI,K10317,30
same,RSAI,HMS-1,0.8
same,RSAI,PSE-3,3.2
same,RSAI,K17,1
same,RSAI,[2],15
same,RSAI,SHV-1,15
same,RSAI,PSE-2,1.4
same,RSAI,[3],17
same,RSAI,PSE-1,2
same,RSAI,TEM-1,30
same,RSAI,OXA-1,10
"CCN1CCN(C(=O)N[C@@H](C(=O)N[C@@H]2C(=O)N3C(C(=O)O)=C(CSc4nnnn4C)CS[C@H]23)c2ccc(O)cc2)C(=O)C1=O [Cefopera-zone, cefoperazone]",RSAI,OXA-2,2
same,RSAI,[1],1.9
same,RSAI,TEM-2,10
same,RSAI,PSE-4,0.014
same,RSAI,OXA-3,2
same,RSAI,K1073,2.2
same,RSAI,K10317,5
same,RSAI,HMS-1,0.2
same,RSAI,PSE-3,0.07
same,RSAI,K17,0.006
same,RSAI,[2],0.5
same,RSAI,SHV-1,4.5
same,RSAI,PSE-2,0.48
same,RSAI,[3],1.3
same,RSAI,PSE-1,0.019
same,RSAI,TEM-1,8
same,RSAI,OXA-1,4.5
"CC1(C)S[C@@H]2[C@H](NC(=O)[C@H](NC(=O)N3CCN(S(C)(=O)=O)C3=O)c3ccccc3)C(=O)N2[C@H]1C(=O)O [Mezlo-cillin, Mezlocillin]",RSAI,OXA-2,19.4
same,RSAI,[1],0.3
same,RSAI,TEM-2,6.3
same,RSAI,PSE-4,0.9
same,RSAI,OXA-3,19.2
same,RSAI,K1073,5.5
same,RSAI,K10317,16.4
same,RSAI,HMS-1,0.9
same,RSAI,PSE-3,0.8
same,RSAI,K17,1.3
same,RSAI,[2],0.26
same,RSAI,SHV-1,3
same,RSAI,PSE-2,4.75
same,RSAI,[3],0.4
same,RSAI,PSE-1,1.2
same,RSAI,TEM-1,3.6
same,RSAI,OXA-1,1.9
"CC(=O)OCC1=C(C(=O)O)N2C(=O)[C@@H](NC(=O)Cc3cccs3)[C@H]2SC1 [Cephalo-thin, Cephalothin]",RSAI,OXA-2,0.7
same,RSAI,[1],0.8
same,RSAI,TEM-2,15
same,RSAI,PSE-4,6
same,RSAI,OXA-3,0.4
same,RSAI,K1073,5.8
same,RSAI,K10317,7
same,RSAI,HMS-1,1
same,RSAI,PSE-3,0.76
same,RSAI,K17,1.8
same,RSAI,[2],0.7
same,RSAI,SHV-1,7
same,RSAI,PSE-2,0.54
same,RSAI,[3],0.6
same,RSAI,PSE-1,4
same,RSAI,TEM-1,10
same,RSAI,OXA-1,4
CO/N=C(\C(=O)N[C@@H]1C(=O)N2C(C(=O)O)=C(COC(N)=O)CS[C@H]12)c1ccco1 [Cefuroxime],RSAI,OXA-2,3.6
same,RSAI,[1],0.002
same,RSAI,TEM-2,40
same,RSAI,PSE-4,34
same,RSAI,OXA-3,0.003
same,RSAI,K1073,12
same,RSAI,K10317,14
same,RSAI,HMS-1,16
same,RSAI,PSE-3,12
same,RSAI,K17,2.3
same,RSAI,[2],0.0001
same,RSAI,SHV-1,20
same,RSAI,PSE-2,1.7
same,RSAI,[3],0.0002
same,RSAI,PSE-1,50
same,RSAI,TEM-1,50
same,RSAI,OXA-1,10
"CC1(C)S[C@@H]2[C@H](NC(=O)[C@H](N)c3ccc(O)cc3)C(=O)N2[C@H]1C(=O)O [Amoxy-cillin, amoxycillin]",RSAI,OXA-2,8
same,RSAI,[1],0.02
same,RSAI,TEM-2,2.2
same,RSAI,PSE-4,1
same,RSAI,OXA-3,8.6
same,RSAI,K1073,1.7
same,RSAI,K10317,7
same,RSAI,HMS-1,0.8
same,RSAI,PSE-3,1.5
same,RSAI,K17,1.3
same,RSAI,[2],0.035
same,RSAI,SHV-1,2.8
same,RSAI,PSE-2,2.2
same,RSAI,[3],0.05
same,RSAI,PSE-1,0.9
same,RSAI,TEM-1,1.3
same,RSAI,OXA-1,1.2
